Paper PMC5131364, “Pharmacologic modulation of RORγt translates to efficacy in preclinical and translational models of psoriasis and inflammatory arthritis” (Scientific Reports, 2016)
Like-named read-outs stand apart in the source and are kept apart here.

Columns and labels:
[1] = system: human γδ+ T cells in PBMCs; test: Human γδ+ T cell in vitro activation; assay type: cell-based; settings: 168 h, IL-1β, IL-23 and IPP, 7 days, average, read-out: inhibition of the IL-17A+ γδ+ T cell population
Description: The following antibodies (anti-mouse or anti-human) were purchased from BD Biosciences (San Diego, CA) or eBioscience (San Diego, CA): anti-CD3-FITC (mouse 17A2 and human SK7), anti-CD4-allophycocyanin (APC), anti-CD4-PerCp, anti-CD4-FITC, anti-CD4-PE (mouse GK1.5 and human SK3), anti-CD44-PerCp (mouse IM7), anti-γδ TCR-FITC, anti-γδ TCR-PE (mouse GL3 and human B1), anti-CD62L-FITC (mouse MEL-14 and human SK11), anti-CD45RO-APC (human UCHL1), anti-CCR6-PE (human 11A9), anti-CD45-PerCp (mouse 30-F11). Human or mouse anti-IFNγ (mouse XMG1.2 and human 4S.B3), anti-TNFα (mouse MP6-XT22 and human MAB11), anti-IL-17A (mouse eBio17B7 and human eBio64DEC17), anti-IL-22 (mouse 1H8PWSR and human 22URTI), and anti-Foxp3 (mouse FJK-16s and human 36A/E7), all PE or APC conjugated, were purchased from eBioscience (San Diego, CA). Human and mouse APC conjugated CD1d tetramers pre-loaded with alpha-GalCer and negative controls were obtained from ProImmune. […] Cells were stained with fluorescence-labeled antibodies for surface marker, then fixed/permeabilized (eBioscience) and stained with antibodies for intracellular cytokines. […] The data were acquired on a FACS Calibur (BD Bioscience) and analyzed using FlowJo software (Tree Star, San Carlos, CA).
Human γδ^+ T cells were analyzed only through flow cytometry. […]

mouse splenocytes = test: IL-23 induced IL-17A and IL-22 production in mouse splenocytes; assay type: cell-based; settings: Splenocyte, 96 h, IL-23 and IL-2, 4 days
Protocol: Mouse CD4+ T cell in vitro Th1 differentiation
Total CD4+ T cells were isolated from splenocytes of C57/BL6 mice (Chareles River Labrotory) using a CD4+ T cell isolation kit (Miltenyl Biotec, Auburn, CA), following the manufacturer’s instructions. Cells were resuspended in culture medium (described in Method section of Th17 differentiation) and were added to 96‐well plates at 2x10^5 per well. Titrated JNJ‐54271074 was added to each well at final DMSO concentration of 0.2%. Cells were incubated for 1 hour, after which Th1 cell differentiation medium was added with final concentrations of 1 µg/ml anti‐CD3, 5 µg/mL anti‐CD28 (BD Pharmingen, San Diego, CA), 10 µg/ml anti‐IL4, 10 ng/mL IL‐12, (R&D Systems, Minneapolis, MN). Cells were cultured at 37 °C and 5% CO2 for 3 days. Supernatants were collected and the accumulated cytokines in culture were measured by ELISA kits (R&D Systems, Minneapolis, MN) following manufacturers' instructions.
IL‐23 induced IL‐17A and IL‐22 production in mouse splenocytes splenocytes were isolated from C57/BL6 mice and resuspended in medium and cultured in 96‐well plates at […] per 100 µL per well. […] Supernatants were collected and the accumulated cytokines in culture were measured by ELISA according to the manufacturer’s instructions (IL‐17A kit from R&D systems, and IL‐22 from Biolegend San Diego). […]

COc1nc2ccc([C@@](O)(c3ccc(C)nc3C)c3cnnn3C)cc2c(Cl)c1Cc1ccc(C(F)(F)F)cc1 [JNJ-54271074]
inhibition at 1 µM [1]: 56% | IC50 (mouse splenocytes; no anti-CD3/anti-CD28, read-out: IC50, IL-23-stimulated IL-17A production): 0.019 µM | IC50 (mouse splenocytes; no anti-CD3/anti-CD28, read-out: IC50, IL-23-stimulated IL-22 production): 0.037 µM
